Publication PMC6274398, “Three Novel Triterpenoids from Taraxacum officinale Roots” (Molecules, 2016)
Like-named read-outs stand apart in the source and are kept apart here.

Assays:
[1] = tested on: NO production in RAW 264.7 mouse macrophages stimulated by lipopolysaccharide (LPS); assay: Inhibitory assay of NO production (Griess) in LPS-stimulated RAW264.7 cells; format: cell-based; conditions: for NO inhibitory activity (in words): 1–30 μM tested; for activity at 1 µM / activity at 3 µM / activity at 10 µM / activity at 30 µM / IC50: Mus musculus; for activity at 1 µM / activity at 3 µM / activity at 10 µM / activity at 30 µM: read-out: Produced NO %; for IC50: read-out: IC50 (inhibition of NO production)
Description: An inhibitory assay of NO production was examined in accordance with a previously reported method with minor modifications. Briefly, RAW264.7 cells (5 × 10^4 cells in 100 μL) were seeded on a 96-well microplate and incubated for 24 h. DMEM-containing test samples (100 μL total volume, final concentration of 30, 10, 3, or 1 μM) dissolved in DMSO (final concentration 0.2%) and LPS (final concentration of 5 μg/mL) was added. After being treated for 24 h, the supernatant of the culture medium was transferred to another 96-well microplate, and 50 μL of 0.15% N-(1-naphtyl)ethylenediamine in H2O and 1.5% sulfanilamide in 7.5% phosphoric acid were then added. After being incubated for 30 min, absorbance in each well was read at 570 nm using a microplate reader. The optical density of vehicle control cells was assumed to be 100%

RAW264.7 cells = assay: RAW264.7 cell proliferation / cell viability (MTT); format: cell-based, mouse; conditions: for Cell Viavility %: 24 h, MTT, vs DMSO (100%), mean ± S.E., n=4
Description: RAW264.7 cell proliferation was examined in accordance with a previously reported method. Briefly, RAW264.7 cells (5 × 10^4 cells in 100 μL) were seeded on a 96-well microplate and incubated for 24 h. Dulbecco's modified eagle's medium (DMEM)-containing test samples (100 μL total volume, final concentration of 30, 10, 3, or 1 μM) dissolved in dimethyl sulfoxide (DMSO, final concentration 0.2%) was added. After being treated for 24 h, thiazolyl blue tetrazolium bromide (MTT) solution was added. After a 3-h incubation, 20% sodium dodecyl sulfate in 0.1 M HCl was added to dissolve the formazan produced in the cells. Absorbance in each well was read at 570 nm using a microplate reader. The optical density of vehicle control cells was assumed to be 100%.

[2] = RAW264.7, 1 μM, LPS 5 μg/mL, 24 h, vs DMSO (100%), mean ± S.E., n=4
[3] = RAW264.7, 3 μM, LPS 5 μg/mL, 24 h, vs DMSO (100%), mean ± S.E., n=4
[4] = RAW264.7, 10 μM, LPS 5 μg/mL, 24 h, vs DMSO (100%), mean ± S.E., n=4
[5] = RAW264.7, 30 μM, LPS 5 μg/mL, 24 h, vs DMSO (100%), mean ± S.E., n=4

Row | SMILES | NO inhibitory activity (in words) [1] | activity at 1 µM [1, 2] [%] | activity at 3 µM [1, 3] [%] | activity at 10 µM [1, 4] [%] | activity at 30 µM [1, 5] [%] | IC50 ([1]; LPS-stimulated RAW264.7, 24 h) [µM] | Cell Viavility % (RAW264.7 cells; 1 μM) | Cell Viavility % (RAW264.7 cells; 3 μM) | Cell Viavility % (RAW264.7 cells; 10 μM) | Cell Viavility % (RAW264.7 cells; 30 μM) | Cytotoxicity (in words) (RAW264.7 cells; at 1–30 μM) | IC50 ([1]; RAW264.7, 24 h) [µM] | activity at 1 µM ([1]; RAW264.7, 24 h) [%] | activity at 3 µM ([1]; RAW264.7, 24 h) [%] | activity at 10 µM ([1]; RAW264.7, 24 h) [%] | activity at 30 µM ([1]; RAW264.7, 24 h) [%] | melting point [°C] | Cytotoxicity at effective concentration (in words) (RAW264.7 cells; at 1 and 3 μM) | Cytotoxicity (in words) (RAW264.7 cells; at higher concentrations) | Cytotoxicity at effective concentration (in words) (RAW264.7 cells; at 1–10 μM)
1 | CC(C)C1=CC(=O)C(C)CCC2(C)C(CCC3C4(C)CCC(=O)C(C)(C)C4CCC32C)C1=O (stereo not drawn) [Compound 7, officinatrione] | exhibited NO inhibitory activities | 101 ± 1 | 101 ± 2.5 | 89.8 ± 1.1 | 66.8 ± 0.8 | > 30 | (98.3 ± 2.6) % | (103.0 ± 2.4) % | (99.7 ± 3.8) % | (99.8 ± 3.0) % | no cytotoxicity |  |  |  |  |  |  |  |  | 
2 | CNC(=N)NCCC[C@H](N)C(=O)O [L-NMMA, N^G-monomethyl-L-arginine acetate, reference compound] |  | 93.3 ± 2.2 | 91.4 ± 0.8 | 68.9 ± 4.5 | 43.1 ± 1.1 | 23.9 | (101.5 ± 0.9) % | (101.9 ± 0.4) % | (98.5 ± 0.9) % | (109.4 ± 0.5) % |  |  |  |  |  |  |  |  |  | 
3 | CC(=O)O[C@H]1CC[C@]2(C)[C@H]3CC[C@@]4(C)[C@H]([C@H](C)CCC=C(C)C)CC[C@]4(C)C3=CC(=O)[C@H]2C1(C)C [Compound 3, 3β-acetoxyeupha-7,24-dien-6-one] |  |  |  |  |  |  | (100.0 ± 1.4) % | (94.6 ± 8.2) % | (104.2 ± 0.7) % | (103.8 ± 1.0) % |  | > 30 | 101 ± 2.6 | 93.7 ± 1.4 | 93.3 ± 1.6 | 93.1 ± 0.9 | 140 to 143 |  |  | 
4 | CC(=O)O[C@H]1CC[C@]2(C)[C@H]3CC[C@@]4(C)[C@@H]5[C@@H](C)[C@H](C)CC[C@]5(C)CC[C@]4(C)C3=CC(=O)[C@H]2C1(C)C [Compound 2, 3β-acetoxybauer-7-en-6-one] |  | 95.6 ± 2.7 | 101 ± 2.6 | 86.5 ± 1.4 | 71.4 ± 1.8 | > 30 | (100.0 ± 1.3) % | (102.2 ± 0.3) % | (105.1 ± 0.3) % | (105.7 ± 2.0) % |  |  |  |  |  |  | 110 to 112 |  |  | 
5 | C=C(C)[C@@H]1CC[C@]2(CO)CC[C@]3(C)[C@H](CC[C@@H]4[C@@]5(C)CC[C@H](O)C(C)(C)[C@@H]5CC[C@]43C)[C@@H]12 [Compound 6, betulin] | exhibited NO inhibitory activities |  |  |  |  |  | (99.8 ± 0.1) % | (93.7 ± 1.1) % | (76.7 ± 0.7) % | (66.7 ± 1.2) % |  | 17 | 83.4 ± 1.5 | 75 ± 3.2 | 65.4 ± 0.5 | 36.3 ± 0.6 |  | did not exhibit cytotoxicity | some cytotoxicity | 
6 | CC(C)=CCC[C@@H](C)[C@@H]1CC[C@]2(C)C3=CC[C@H]4C(C)(C)C(=O)CC[C@]4(C)[C@H]3CC[C@@]12C [Compound 9, eupha-7,24-dien-3-one] |  |  |  |  |  |  | (99.3 ± 0.2) % | (98.8 ± 0.2) % | (99.1 ± 0.4) % | (99.9 ± 0.6) % |  | > 30 | 98.4 ± 3.9 | 100 ± 1.6 | 109 ± 2 | 108 ± 4.7 |  |  |  | 
7 | CO[C@H]1C[C@]2(C)CC[C@]3(C)[C@H](CC[C@@H]4[C@@]5(C)CC[C@H](OC(C)=O)C(C)(C)[C@@H]5CC[C@]43C)[C@@]23O[C@@]13C(C)C [Compound 1, 18β,19β-epoxy-21β-methoxylupan-3β-yl acetate] |  |  |  |  |  |  | (95.0 ± 0.7) % | (104.2 ± 1.3) % | (102.6 ± 0.7) % | (107.4 ± 2.0) % |  | > 30 | 94.8 ± 1.2 | 101.4 ± 0.7 | 90.5 ± 2.4 | 95.7 ± 4.6 |  |  |  | 
8 | CC(=O)O[C@H]1CC[C@]2(C)[C@H]3CC[C@@H]4[C@@]56O[C@]5(C(C)C)[C@@H](O)C[C@]6(C)CC[C@@]4(C)[C@]3(C)CC[C@H]2C1(C)C [Compound 4, 18β,19β-epoxy-21β-hydroxylupan-3β-yl acetate] | exhibited NO inhibitory activities |  |  |  |  |  | (98.4 ± 0.9) % | (97.9 ± 0.3) % | (92.7 ± 1.0) % | (49.5 ± 0.7) % |  | 16.9 | 83.6 ± 0.9 | 76.8 ± 2.5 | 66 ± 0.8 | 35.4 ± 2.2 |  |  | some cytotoxicity | did not exhibit cytotoxicity
9 | CC(=O)O[C@H]1CC[C@]2(C)[C@H]3CC[C@@H]4C5=C(C(C)C)C(=O)C[C@]5(C)CC[C@@]4(C)[C@]3(C)CC[C@H]2C1(C)C [Compound 5, 21-oxolup-18-en-3β-yl acetate] |  |  |  |  |  |  | (98.4 ± 3.1) % | (94.8 ± 3.9) % | (90.7 ± 1.8) % | (88.9 ± 2.3) % |  | > 30 | 110 ± 5.2 | 106 ± 3.2 | 94.9 ± 4.3 | 92.7 ± 4.7 |  |  |  | 
10 | CO[C@@H]1C=C2[C@@H]3CC(C)(C)CC[C@]3(C)CC[C@@]2(C)[C@]2(C)CC[C@H]3C(C)(C)C(=O)CC[C@]3(C)[C@@H]12 [Compound 8, 11α-methoxyolean-12-en-3-one] | exhibited NO inhibitory activities | 102.9 ± 0.7 | 105 ± 3.1 | 90.2 ± 7.1 | 64.1 ± 3.3 | > 30 | (99.9 ± 0.1) % | (100.4 ± 0.1) % | (100.5 ± 0.2) % | (103.0 ± 1.6) % | no cytotoxicity |  |  |  |  |  |  |  |  | 
11 | C=C(C)C(=O)CC[C@@H](C)[C@@H]1CC[C@]2(C)C3=CC[C@H]4C(C)(C)[C@@H](OC(C)=O)CC[C@]4(C)[C@H]3CC[C@@]12C [Compound 10] | exhibited NO inhibitory activities |  |  |  |  |  | (108.3 ± 4.7) % | (100.4 ± 0.2) % | (100.2 ± 0.1) % | (2.6 ± 0.4) % |  | 18.4 | 93.8 ± 1.8 | 81.6 ± 3.7 | 67.5 ± 2.4 | 37 ± 1.8 |  |  | some cytotoxicity | did not exhibit cytotoxicity
